Inconclusive results and toxic doses are left out. No stated cut-off is given here; in the data, active means T/C of 150% or more; inactive means T/C below 125%.
System: L1210 leukemia ip in BDF1 mice, survival T/C
Assay: NCI In Vivo Anticancer Drug Screen. Data for tumor model L1210 Leukemia (intraperitoneal) in B6D2F1 (BDF1) mice
Conditions: endpoint: mean survival time, higher = longer survival
Method in brief: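 Transplanted-tumor mice were given test agent; controls received vehicle only. Survival readings from the two groups were divided (treated over control).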

[1] = dose: 100.0 mg/kg/injection, schedule: Q01DX001 (ip), vehicle: saline
[2] = dose: 200.0 mg/kg/injection, schedule: Q01DX001 (ip), vehicle: saline
[3] = dose: 400.0 mg/kg/injection, schedule: Q01DX001 (ip), vehicle: saline
[4] = dose: 100.0 mg/kg/injection, schedule: Q01DX009 (ip), vehicle: acetone
[5] = dose: 100.0 mg/kg/injection, schedule: Q01DX009 (ip), vehicle: Klucel (hydroxypropylcellulose) (HPC)
[6] = dose: 100.0 mg/kg/injection, schedule: Q04DX003 (ip), vehicle: Klucel (hydroxypropylcellulose) (HPC)
[7] = dose: 200.0 mg/kg/injection, schedule: Q01DX009 (ip), vehicle: Klucel (hydroxypropylcellulose) (HPC)
[8] = dose: 200.0 mg/kg/injection, schedule: Q04DX003 (ip), vehicle: Klucel (hydroxypropylcellulose) (HPC)
[9] = dose: 400.0 mg/kg/injection, schedule: Q01DX009 (ip), vehicle: Klucel (hydroxypropylcellulose) (HPC)
[10] = dose: 400.0 mg/kg/injection, schedule: Q04DX003 (ip), vehicle: Klucel (hydroxypropylcellulose) (HPC)
[11] = dose: 100.0 mg/kg/injection, schedule: Q01DX001 (ip), vehicle: Klucel (hydroxypropylcellulose) (HPC)
[12] = dose: 200.0 mg/kg/injection, schedule: Q01DX001 (ip), vehicle: Klucel (hydroxypropylcellulose) (HPC)
[13] = dose: 400.0 mg/kg/injection, schedule: Q01DX001 (ip), vehicle: Klucel (hydroxypropylcellulose) (HPC)
[14] = dose: 100.0 mg/kg/injection, schedule: Q04DX002 (ip), vehicle: Klucel (hydroxypropylcellulose) (HPC)
[15] = dose: 200.0 mg/kg/injection, schedule: Q04DX002 (ip), vehicle: Klucel (hydroxypropylcellulose) (HPC)
[16] = dose: 400.0 mg/kg/injection, schedule: Q04DX002 (ip), vehicle: Klucel (hydroxypropylcellulose) (HPC)
[17] = dose: 100.0 mg/kg/injection, schedule: Q01DX009 (ip), vehicle: saline with Tween-80
[18] = dose: 200.0 mg/kg/injection, schedule: Q01DX009 (ip), vehicle: saline with Tween-80
[19] = dose: 400.0 mg/kg/injection, schedule: Q01DX009 (ip), vehicle: saline with Tween-80
[20] = dose: 75.0 mg/kg/injection, schedule: Q01DX001 (ip), vehicle: saline
[21] = dose: 150.0 mg/kg/injection, schedule: Q01DX001 (ip), vehicle: saline
[22] = dose: 100.0 mg/kg/injection, schedule: Q04DX002 (ip), vehicle: saline
[23] = dose: 200.0 mg/kg/injection, schedule: Q04DX002 (ip), vehicle: saline
[24] = dose: 400.0 mg/kg/injection, schedule: Q04DX002 (ip), vehicle: saline
[25] = dose: 300.0 mg/kg/injection, schedule: Q01DX001 (ip), vehicle: saline
[26] = dose: 100.0 mg/kg/injection, schedule: Q04DX003 (ip), vehicle: saline with Tween-80
[27] = dose: 200.0 mg/kg/injection, schedule: Q04DX003 (ip), vehicle: saline with Tween-80
[28] = dose: 400.0 mg/kg/injection, schedule: Q04DX003 (ip), vehicle: saline with Tween-80

Measured: T/C

CN(CC1CNc2nc(N)[nH]c(=O)c2N1C)c1ccc(C(=O)NC(CCC(=O)O)C(=O)O)cc1 (stereo unspecified)
inactive: [1] 94 % of control | [2] 102 % of control | [3] 94 % of control

CC(=O)NC1CC(CO)C(O)C1O (stereo unspecified)
inactive: [1] 107 % of control | [2] 90 % of control | [3] 101 % of control

c1nc(SCC2CO2)c2ncn(CC3CO3)c2n1 (stereo unspecified)
inactive: [1] 107 % of control | [2] 101 % of control | [3] 97 % of control

O=S(=O)(/C=C/c1ccccc1)c1ccc(F)cc1
inactive: dose: 100.0 mg/kg/injection, schedule: Q01DX001 (ip), vehicle: acetone 97 % of control | [4] 88 % of control | dose: 200.0 mg/kg/injection, schedule: Q01DX001 (ip), vehicle: acetone 95 % of control | dose: 400.0 mg/kg/injection, schedule: Q01DX001 (ip), vehicle: acetone 95 % of control

C=CCOC(=O)C1CC(C(=O)OCC=C)C(C(=O)OCC=C)C1C(=O)OCC=C (stereo unspecified)
inactive: [5] 100 % of control | [6] 91 % of control | [7] 92 % of control | [8] 100 % of control | [9] 92 % of control | [10] 96 % of control

O=C1NC(c2ccccc2)(c2ccccc2)C(=O)N1CCCl
inactive: [4] 102 % of control | dose: 100.0 mg/kg/injection, schedule: Q04DX003 (ip), vehicle: saline 101 % of control | dose: 200.0 mg/kg/injection, schedule: Q01DX009 (ip), vehicle: acetone 101 % of control | dose: 200.0 mg/kg/injection, schedule: Q04DX003 (ip), vehicle: saline 95 % of control | dose: 400.0 mg/kg/injection, schedule: Q01DX009 (ip), vehicle: acetone 104 % of control | dose: 400.0 mg/kg/injection, schedule: Q04DX003 (ip), vehicle: saline 110 % of control

COc1ccc2c(n1)Sc1c(Cl)nc(Cl)nc1N2
inactive: [11] 95 % of control | [12] 93 % of control | [13] 98 % of control

O=C(Nc1ccc(O)cc1)Sc1ccccc1
inactive: dose: 75.0 mg/kg/injection, schedule: Q01DX001 (ip), vehicle: gum acacia 107 % of control

COC1OC(COS(C)(=O)=O)C(OS(C)(=O)=O)C(OC(=O)c2ccccc2)C1OS(C)(=O)=O (stereo unspecified)
inactive: [14] 111 % of control | [15] 97 % of control | [16] 97 % of control

Cc1cccc(NNC(=S)Nc2ccccc2)c1
inactive: [17] 97 % of control | [18] 97 % of control | [19] 94 % of control

CCCP(=S)(CCC)Oc1ccc([N+](=O)[O-])cc1
inactive: [20] 95 % of control | [21] 98 % of control

CN(C)C(=S)Oc1ccc(C(=O)O)cc1
inactive: [11] 86 % of control | [12] 90 % of control | [13] 88 % of control

CC(=O)OCCN1CCCCC1
inactive: [22] 94 % of control | [23] 94 % of control | [24] 97 % of control

Cc1cccc(C)c1NS(=O)(=O)c1ccc(Cl)cc1
inactive: [5] 107 % of control | [6] 101 % of control | [7] 88 % of control | [8] 102 % of control | [9] 95 % of control | [10] 98 % of control

NC(N)=NCCCS
inactive: [20] 104 % of control | [21] 104 % of control | [25] 104 % of control

Nc1nnnn1-c1ccccc1-c1ccccc1
inactive: [5] 101 % of control | [7] 104 % of control | [9] 114 % of control

CCCCCCCCC(=O)N(CC)CC
inactive: [22] 111 % of control | [23] 103 % of control | [24] 96 % of control

O=S1(=O)CC2(N3CCCC3)CCCCC21 (stereo unspecified)
inactive: [20] 98 % of control | [21] 100 % of control | [25] 100 % of control

O=C(Nc1ccccc1)Nc1ccc(F)cc1
inactive: [17] 100 % of control | [26] 101 % of control | [18] 94 % of control | [27] 99 % of control | [19] 96 % of control | [28] 105 % of control

C[C@]12CCC(=O)C=C1CC[C@@H]1[C@@H]2[C@@H](O)C[C@@]2(C)[C@H]1CC[C@]2(O)C(=O)COC(=O)COCC(=O)O
inactive: dose: 100.0 mg/kg/injection, schedule: Q04DX003 (sc), vehicle: Klucel (hydroxypropylcellulose) (HPC) 101 % of control | dose: 200.0 mg/kg/injection, schedule: Q04DX003 (sc), vehicle: Klucel (hydroxypropylcellulose) (HPC) 102 % of control | dose: 400.0 mg/kg/injection, schedule: Q04DX003 (sc), vehicle: Klucel (hydroxypropylcellulose) (HPC) 101 % of control

Cc1ccc(NC(=O)c2ccccc2)cc1Cl
inactive: [5] 98 % of control | [6] 106 % of control | [7] 95 % of control | [8] 101 % of control | [9] 96 % of control | [10] 97 % of control

COc1ccccc1C(=O)N/N=C/c1ccncc1
inactive: [5] 94 % of control | [7] 94 % of control | [9] 97 % of control

CCOC(=O)C(C)N1C(=O)c2ccccc2C1=O (stereo unspecified)
inactive: [14] 100 % of control | [15] 104 % of control | [16] 100 % of control

COC1=C(F)C(=O)C(OC)=C(F)C1=O
inactive: dose: 1.2 mg/kg/injection, schedule: Q01DX001 (ip), vehicle: alcohol 101 % of control | dose: 2.5 mg/kg/injection, schedule: Q01DX001 (ip), vehicle: alcohol 97 % of control | dose: 5.0 mg/kg/injection, schedule: Q01DX001 (ip), vehicle: alcohol 103 % of control

OCc1ccc(Cl)cc1Cl
inactive: dose: 50.0 mg/kg/injection, schedule: Q01DX009 (ip), vehicle: saline with Tween-80 107 % of control | [17] 103 % of control | [26] 100 % of control | [18] 103 % of control | [27] 105 % of control | [28] 102 % of control

CC(=O)OCc1cc(=O)n(C)c2c3c4c(cc12)c(C)cc(=O)n4CO3
inactive: [11] 109 % of control | [6] 104 % of control | [12] 114 % of control | [8] 117 % of control | [13] 118 % of control | [10] 123 % of control

O=[N+]([O-])c1ccc2sc3ccccc3c2c1
inactive: [14] 108 % of control | [15] 97 % of control | [16] 101 % of control

NC(N)=N/N=C/c1ccc(C(=O)O)cc1
inactive: dose: 15.0 mg/kg/injection, schedule: Q01DX Z (ip), vehicle: saline 103 % of control | dose: 30.0 mg/kg/injection, schedule: Q01DX Z (ip), vehicle: saline 104 % of control | dose: 60.0 mg/kg/injection, schedule: Q01DX Z (ip), vehicle: saline 106 % of control | dose: 120.0 mg/kg/injection, schedule: Q01DX Z (ip), vehicle: saline 110 % of control | dose: 120.0 mg/kg/injection, schedule: Q01DX Z (oral), vehicle: saline 92 % of control | dose: 240.0 mg/kg/injection, schedule: Q01DX Z (ip), vehicle: saline 87 % of control | dose: 240.0 mg/kg/injection, schedule: Q01DX Z (oral), vehicle: saline 90 % of control | dose: 480.0 mg/kg/injection, schedule: Q01DX Z (oral), vehicle: saline 101 % of control | dose: 960.0 mg/kg/injection, schedule: Q01DX Z (oral), vehicle: saline 92 % of control

CCN(N=Nc1ccc(C)cc1)N=Nc1ccc(C)cc1
inactive: [5] 93 % of control | [6] 100 % of control | [7] 88 % of control | [8] 100 % of control | [9] 88 % of control | [10] 93 % of control

CC(=O)OCC1OC(Sc2nc3ncnc(N)c3[nH]2)C(OC(C)=O)C(OC(C)=O)C1OC(C)=O (stereo unspecified)
inactive: [1] 104 % of control | [2] 102 % of control | [3] 97 % of control

O=c1[nH][nH]c(=O)c2c([N+](=O)[O-])cccc12
inactive: dose: 100.0 mg/kg/injection, schedule: Q01DX001 (ip), vehicle: other 90 % of control | dose: 200.0 mg/kg/injection, schedule: Q01DX001 (ip), vehicle: other 92 % of control | dose: 400.0 mg/kg/injection, schedule: Q01DX001 (ip), vehicle: other 87 % of control

Reference: PubChem BioAssay AID248 (DTP/NCI, 2004)
